Experimental data taken from patent US20250002471A1 (Gilead Sciences, Inc., priority 2020, published 2025).

What was measured:
TLR7 = molecular target: T1, TLR7 (Homo sapiens, UniProt Q9NYK1); assay: Human PBMC cell-based assay, TLR7 agonist GS-986 stimulation, cytokine (IL-6 and IFNα) readout; details: human PBMCs, GS-986 400 nM, 6 hours; Table 26; read-out: TLR-7 EC50
T1 construct: lymphocytes, monocytes and dendritic cells that express TLR7, TLR8 and TLR9; endogenous in cells; host or cells: human PBMCs from healthy donors
T1 sequence (Q9NYK1 27-1049): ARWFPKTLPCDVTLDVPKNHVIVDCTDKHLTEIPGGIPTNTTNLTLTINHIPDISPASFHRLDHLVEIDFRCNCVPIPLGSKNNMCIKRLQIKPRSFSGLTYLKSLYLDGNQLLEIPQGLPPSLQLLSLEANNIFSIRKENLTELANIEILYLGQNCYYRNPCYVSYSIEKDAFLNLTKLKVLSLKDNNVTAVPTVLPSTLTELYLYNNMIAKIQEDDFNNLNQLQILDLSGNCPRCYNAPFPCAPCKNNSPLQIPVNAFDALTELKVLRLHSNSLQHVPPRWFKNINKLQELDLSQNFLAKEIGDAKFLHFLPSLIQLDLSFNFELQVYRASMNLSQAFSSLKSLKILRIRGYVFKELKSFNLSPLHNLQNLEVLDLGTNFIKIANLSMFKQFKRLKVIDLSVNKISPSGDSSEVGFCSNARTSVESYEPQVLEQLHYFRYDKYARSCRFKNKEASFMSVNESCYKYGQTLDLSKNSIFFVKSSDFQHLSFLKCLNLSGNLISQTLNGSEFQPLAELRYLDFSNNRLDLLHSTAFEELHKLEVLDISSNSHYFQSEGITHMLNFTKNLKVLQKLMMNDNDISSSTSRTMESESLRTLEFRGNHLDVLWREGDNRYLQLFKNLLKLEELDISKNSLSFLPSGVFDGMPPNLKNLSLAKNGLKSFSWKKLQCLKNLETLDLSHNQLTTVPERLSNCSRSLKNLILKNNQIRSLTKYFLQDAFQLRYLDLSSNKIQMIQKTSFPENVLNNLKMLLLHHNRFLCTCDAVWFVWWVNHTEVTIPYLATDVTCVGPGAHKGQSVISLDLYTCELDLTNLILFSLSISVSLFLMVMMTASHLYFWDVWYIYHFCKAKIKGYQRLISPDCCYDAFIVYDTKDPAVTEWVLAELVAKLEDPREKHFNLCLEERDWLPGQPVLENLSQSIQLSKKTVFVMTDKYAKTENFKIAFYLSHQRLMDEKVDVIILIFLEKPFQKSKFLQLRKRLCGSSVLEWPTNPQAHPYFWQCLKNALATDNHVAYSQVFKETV
Description: (§1) Human peripheral blood mononuclear cells (PBMCs) consist of lymphocytes, monocytes and dendritic cells that express TLR7, TLR8 and TLR9. These cells respond to TLR7, TLR8 and TLR9 ligand stimulation and produce cytokines and chemokines in vitro and in vivo. Human PBMCs are therefore suitable to be used in a cell-based assay to assess the in vitro potency of a TLR 7, 8, and/or 9 antagonist. The result is expected to be more translatable to the pharmacodynamics response in vivo than cell line-based assays.
(§2) Cryopreserved human PBMCs from healthy donors were thawed and resuspended in RPMI-1640 media with L-glutamine (Corning) supplemented with 10% Fetal Bovine Serum (Hyclone) and 1X Penicillin-Streptomycin (Corning). After counting, the cell density was adjusted to 2 million cells/ml and incubated for 1 hour at 37° C., 5% CO2 for recovery. Following the recovery, the cells were plated by adding 50p per well (100,000 cells) to 384-well cell culture plates (Greiner) containing 250nl of test antagonists in 100% DMSO per well, in a 10 points dose response in quadruplicates. PBMCs were incubated in the presence of test antagonists for one hour at 37° C., 5% CO2 before being stimulated with a TLR7 or TLR9 agonist. GS-986 (Gilead Sciences) was used as the TLR7 agonist at a final concentration of 400 nM. ODN-2216 (InvivoGen) was used as the TLR9 agonist at a final concentration of 3μM. PBMCs were incubated in the presence of the test antagonist and the TLR7 (or TLR9) agonist for an additional 6 hours at 37° C., 5% CO2. At the end of the incubation, the cell culture plates were centrifuged at 500 g for 5 min, and the cell culture supernatant was collected. The level of cytokines (IL-6 and IFNα) in the supernatant was measured by electrochemiluminescence immunoassays (Mesoscale Discovery) following manufacturer's recommended protocols. The level of cytokine measured was plotted against the test antagonist concentration and fitted to a sigmoidal function to determine the EC50, which are shown below in Table 26.

TLR9 = molecular target: T2, TLR9 (Homo sapiens, UniProt Q9NR96); assay: Human PBMC cell-based assay, TLR9 agonist ODN-2216 stimulation, cytokine (IL-6 and IFNα) readout; details: human PBMCs, ODN-2216 3 μM, 6 hours; Table 26; read-out: TLR-9 EC50
T2 construct: lymphocytes, monocytes and dendritic cells that express TLR7, TLR8 and TLR9; endogenous in cells; host or cells: human PBMCs from healthy donors
T2 sequence (Q9NR96 26-1032): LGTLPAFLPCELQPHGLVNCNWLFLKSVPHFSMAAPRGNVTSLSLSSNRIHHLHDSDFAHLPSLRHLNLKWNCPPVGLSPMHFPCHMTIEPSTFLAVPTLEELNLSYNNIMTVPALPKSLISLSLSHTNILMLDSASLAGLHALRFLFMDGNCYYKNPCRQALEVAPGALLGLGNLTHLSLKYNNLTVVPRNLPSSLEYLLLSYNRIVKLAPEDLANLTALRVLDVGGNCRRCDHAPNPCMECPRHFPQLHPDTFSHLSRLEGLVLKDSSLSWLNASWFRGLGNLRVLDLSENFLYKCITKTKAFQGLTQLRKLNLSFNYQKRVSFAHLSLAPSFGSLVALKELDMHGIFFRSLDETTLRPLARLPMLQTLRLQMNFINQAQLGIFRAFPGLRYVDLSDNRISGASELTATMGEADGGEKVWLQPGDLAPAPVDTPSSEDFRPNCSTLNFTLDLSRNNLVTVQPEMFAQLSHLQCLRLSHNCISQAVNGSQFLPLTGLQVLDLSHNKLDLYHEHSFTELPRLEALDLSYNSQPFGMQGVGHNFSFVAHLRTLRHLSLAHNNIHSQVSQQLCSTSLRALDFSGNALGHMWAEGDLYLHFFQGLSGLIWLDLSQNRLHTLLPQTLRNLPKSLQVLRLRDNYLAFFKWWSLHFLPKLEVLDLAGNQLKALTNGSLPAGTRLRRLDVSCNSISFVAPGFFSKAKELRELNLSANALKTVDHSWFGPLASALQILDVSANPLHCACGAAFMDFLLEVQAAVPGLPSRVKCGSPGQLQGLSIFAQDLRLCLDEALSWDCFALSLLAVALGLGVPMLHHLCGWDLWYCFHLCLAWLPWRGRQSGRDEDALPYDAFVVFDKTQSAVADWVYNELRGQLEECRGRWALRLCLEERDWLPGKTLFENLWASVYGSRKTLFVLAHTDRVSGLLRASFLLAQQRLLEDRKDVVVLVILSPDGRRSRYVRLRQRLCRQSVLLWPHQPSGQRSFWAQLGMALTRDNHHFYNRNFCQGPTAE
Description: as §1, §2

EC50 (TLR7)	EC50 (TLR9)	Compound
1420 nM	178 nM	Cc1cc(-c2[nH]c3nc(C4CCNCC4)ccc3c2C)cc(C)n1 [Example 152, 2-(2,6-dimethyl-4-pyridyl)-3-methyl-6-(4-piperidyl)-1H-pyrrolo[2,3-b]pyridine]
374 nM	3040 nM	COc1cc(-c2ccc3c(C)c(-c4cc(C)nc(C)c4)[nH]c3c2)ccn1 [Example 56, 2-(2,6-dimethylpyridin-4-yl)-6-(2-methoxypyridin-4-yl)-3-methyl-1H-indole]
31.6 nM	122 nM	Cc1cc(-c2[nH]c3cc(-c4ccc(N5CC6(CNCCO6)C5)nc4)ccc3c2C)cc(C)n1 [Example 29]
72.3 nM	69.4 nM	COCCN1CCN(c2ccc(-c3ccc4c(C)c(-c5cc(C)nc(C)c5)[nH]c4c3)cn2)CC1 [Example 117]
53.6 nM	55.6 nM	Cc1cc(-c2[nH]c3cc(-c4ccc5c(c4)CNC5)ccc3c2C)cc(C)n1 [Example 15]
> 1000 nM	120 nM	Cc1cc(-c2[nH]c3cc(-c4ccc(N5CCN(CC(F)F)CC5)nc4)ccc3c2C)cc(C)n1 [Example 141, 6-(6-(4-(2,2-difluoroethyl)piperazin-1-yl)pyridin-3-yl)-2-(2,6-dimethylpyridin-4-yl)-3-methyl-1H-indole]
14.4 nM	24.7 nM	Cc1cc(-c2[nH]c3cc(-c4ccc(N5CCN(CC(C)(C)O)CC5)nc4)ccc3c2C)cc(C)n1 [Example 129, 1-(4-(5-(2-(2,6-dimethylpyridin-4-yl)-3-methyl-1H-indol-6-yl)pyridin-2-yl)piperazin-1-yl)-2-methylpropan-2-ol]
14.3 nM	1250 nM	Cc1cc(-c2[nH]c3cc(-c4ccc(N5CCNCC5)nc4)ccc3c2C)c(C)cn1 [Example 74]
64.4 nM	153 nM	Cc1cc(-c2[nH]c3cc(-c4ccc(N5CCNC6(CC6)C5)nc4)ccc3c2C)cc(C)n1 [Example 22, 6-(6-(4,7-diazaspiro[2.5]octan-7-yl)pyridin-3-yl)-2-(2,6-dimethylpyridin-4-yl)-3-methyl-1H-indole]
35.8 nM	1670 nM	Cc1c(-c2cc(C)c3ncnn3c2)[nH]c2cc(C3CCNCC3)ccc12 [Example 51]
323 nM	785 nM	Cc1cc(-c2[nH]c3cc(-c4cnn(CC5CCNCC5)c4)ccc3c2C)cc(C)n1 [Example 183]
8.6 nM	28.3 nM	Cc1cc(-c2[nH]c3cc(-c4ccc(N5CCC(N)CC5)nc4)ccc3c2C)cc(C)n1 [Example 21, 1-(5-(2-(2,6-dimethylpyridin-4-yl)-3-methyl-1H-indol-6-yl)pyridin-2-yl)piperidin-4-amine]
809 nM	1780 nM	Cc1cc(-c2[nH]c3cc(-c4ccnc(N5CCOCC5)c4)ccc3c2C)cc(C)n1 [Example 59, 4-(4-(2-(2,6-dimethylpyridin-4-yl)-3-methyl-1H-indol-6-yl)pyridin-2-yl)morpholine]
345 nM	228 nM	Cc1cc(-c2[nH]c3cc(-c4cn(C5CCNCC5)nc4C)ccc3c2C)cc(C)n1 [Example 11]
45.9 nM	119 nM	Cc1cc(-c2[nH]c3cc(-c4ccc(N5CCN(C(=O)CN)CC5)nc4)ccc3c2C)cc(C)n1 [Example 137]
124 nM	73.6 nM	Cc1cc(-c2[nH]c3cc(-c4cnn(C5CCNC5)c4)ccc3c2C)cc(C)n1 (stereo not shown) [Example 17]
> 1000 nM	1370 nM	Cc1cc(-c2[nH]c3cc(-c4ccc(N5CCN(CC(F)(F)F)CC5)nc4)ccc3c2C)cc(C)n1 [Example 142]
196 nM	55.2 nM	Cc1cc(-c2[nH]c3cc(-c4ccc(N5C[C@H]6CC[C@@H](C5)[C@H]6N)nc4)ccc3c2C)cc(C)n1 [Example 27]
121 nM	242 nM	Cc1cc(-c2[nH]c3cc(-c4ccc5[nH]cnc5c4)ccc3c2C)cc(C)n1 [Example 44]
483 nM	–	Cc1c(-c2cc(C)c3ncnn3c2)[nH]c2cc(-c3nc4ccccc4[nH]3)ccc12 [Example 193, 6-[6-(1H-benzimidazol-2-yl)-3-methyl-1H-indol-2-yl]-8-methyl-[1,2,4]triazolo[1,5-a]pyridine]
0.11 nM	–	Cc1c(-c2cc(C)c3ncnn3c2)[nH]c2cc(-c3ccc4nc([C@H]5N[C@@H]6CC[C@H]5C6)[nH]c4c3)ccc12 [Example 171]
1.01 nM	–	Cc1c(-c2cc(C)c3ncnn3c2)[nH]c2cc(-c3ccc4c(c3)ncn4C3CC4CC3CN4)ccc12 (stereo not shown) [Example 176]
1.66 nM	–	CCc1c(-c2cc(C)c3ncnn3c2)[nH]c2cc(-c3ccc(N4CCN(CC(N)=O)CC4)nc3)ccc12 [Example 177, 2-(4-(5-(3-ethyl-2-(8-methyl-[1,2,4]triazolo[1,5-a]pyridin-6-yl)-1H-indol-6-yl)pyridin-2-yl)piperazin-1-yl)acetamide]
631 nM	–	Cc1c(-c2cc(C)c3ncnn3c2)[nH]c2cc(-c3nc4ccccc4n3C)ccc12 [Example 194]
–	1340 nM	Cc1cc(-c2[nH]c3cc(-c4ccc5c(c4)CCCN5)ccc3c2C)cc(C)n1 [Example 43]
1.37 nM	–	Cc1c(-c2cc(C)c3ncnn3c2)[nH]c2cc(-c3cnc4c(c3)CNCC4)ccc12 [Example 170]
4.48 nM	–	Cc1cc(-c2[nH]c3cc(-c4ccc5nc([C@@H]6N[C@H]7CC[C@@H]6C7)[nH]c5c4)ccc3c2C)cc(C)n1 [Example 195, 2-[(1S,3R,4R)-2-azabicyclo[2.2.1]heptan-3-yl]-6-[2-(2,6-dimethyl-4-pyridyl)-3-methyl-1H-indol-6-yl]-1H-benzimidazole]
